Here are results for six compounds from patent US20190070268A1, “ABUSE-DETERRENT PHARMACEUTICAL COMPOSITIONS” (priority 2016, published 2019).

In data set [1] the test system is Humicola insolens cutinase (HiC). In kind it is biochemical.
Data set [2] deals with T1, Thermobifida cellulosilytica cutinase 1 (THC) (Thermobifida cellulosilytica, UniProt E9LVH8).
T1 construct: made in house
T1 sequence (E9LVH8 1-262): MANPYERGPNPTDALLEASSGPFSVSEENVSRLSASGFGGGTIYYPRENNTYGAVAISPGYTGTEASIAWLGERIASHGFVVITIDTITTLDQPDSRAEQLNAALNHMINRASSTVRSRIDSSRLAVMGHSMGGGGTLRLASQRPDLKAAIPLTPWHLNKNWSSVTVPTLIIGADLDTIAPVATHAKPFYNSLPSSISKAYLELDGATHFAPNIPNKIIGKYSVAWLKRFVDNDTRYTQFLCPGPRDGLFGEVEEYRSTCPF
Type of data set: biochemical.

Data set [3] has as its system laccase mediator system. In words: Laccase mediator system and methadone, oxygen measurement. Type of data set: biochemical. To be noted: mediator ABTS (best effect). Here is the method:
(§1) During the reaction oxygen acts as electron acceptor and is reduced to water by laccases while the mediators are oxidized. The concentration of oxygen was measured as described above. Oxygen is consumed until the mediator is fully oxidized. […] The second step of the reaction is initiated by addition of the target substrate, which is consequently oxidized by the mediators.
(§2) In the present experiments the final reaction mixtures contained 0.2 to 6 mM mediator, 1-10 units of laccase per ml and 100-3000 mg L^−1 opioid.
For methadone, oxygen measurements were done, but with an extended palette of mediators: In addition to the aforementioned mediators, syringic acid, TEMPO, syringol and ABTS were tested.

In the next data set the test system is laccase. In words: Thin layer chromatography of enzymatic conversion. Type of data set: biochemical. To be noted: samples at 2, 10, 30, 60, 120 minutes.
The subject of data set [4] is laccase from Myceliophthora thermophila (MtL). In words: Polymerization of morphine with laccase from Myceliophthora thermophila (high concentrations). Type of data set: biochemical. To be noted: MTL 10 U to 100 U, 50 mM sodium phosphate buffer pH 7.
Protocol: The reactions were carried out in 50 mM sodium phosphate buffer pH 7.
For data set [5] the test system is unchanged. In words: Oxygen measurement of laccase catalysed oxidation of opioids (MtL). In kind it is biochemical. To be noted: 10 U/ml MtL, 2 mg/ml substrate, distilled water, room temperature. The text has this:
(§3) Laccases use oxygen as electron acceptor, consequently the oxygen concentration decreases upon substrate oxidation.

Data set [6] relates to laccase from Trametes villosa (TvL). Kind of data set: Oxygen measurement of laccase catalysed oxidation of opioids (TvL). Type of data set: biochemical. As to conditions: 10 U/ml TvL, 2 mg/ml substrate, distilled water; for oxygen concentration in solution upon laccase oxidation: room temperature.
From the text: as §3

For data set [7], the system named is laccase mediator system. In words: Laccase mediator system and oxycodone, oxygen concentration measurement. Type of data set: biochemical. To be noted: 10 units laccase/ml, 1000 mg/L oxycodone. The method, then: as §1, §2
The different mediators were used at concentrations of 2 mM with 10 units laccase ml^−1 and 1000 mgL^−1 oxycodone.

In data set [8] the test system is laccase mediator system. In words: Laccase mediator system and oxycodone, HPLC-MS/TOF. In kind it is biochemical. Here is the method: The concentrations were determined with a liquid chromatography-electrospray ionization-time of flight (HPLC-ESI-TOF) mass spectrometer from Agilent (A1260 series, Agilent US). The substances contained in the samples were separated by a Zorbax Hilic Plus, 2.1×100 mm, 3.5 μm (Agilent, US) column. The gradient was set to 100% mobile phase A (65 mM ammonium formiate pH 3.2) with a flow rate of 0.4 mL min^−1 at 40° C. and changed to 100% mobile phase B (acetonitrile) in 15 minutes with an injection volume of 1 μL. The spectra were acquired over the m/z range from 100 to 3000 at a scan rate of two spectra per second. The standard curve for each opioid was performed with corresponding standards ranging from 0.001 to 50 mg L^−1.
In addition to the reactions shown in FIG. 17, the mediator vanillin was used at a higher concentration (6 mM). The results can be seen in FIG. 18 and FIG. 19. […] One of oxycodone's main degradation products, oxymorphone, was found in all samples. Oxymorphone is an impurity of oxycodone and is therefore present even in the controls where no laccase or mediator were used.

The next data set has as its target T2, pepsin (Sus scrofa, UniProt P00791).
T2 construct: purchased Sigma-Aldrich (US) P7000
Kind of data set: Pepsin digestion assay in simulated gastric fluid with SDS-PAGE. As to conditions: SGF pH 1.2 with pepsin, 37° C. In kind it is in vitro ADME. Here is the method: SGF contains 0.084 M HCl, 0.035 M NaCl, 4000 U of pepsin per reaction mixture and has a pH level of 1.2 according to the United States Pharmacopeia (1995). A ratio of 10000 Units of pepsin activity to 1 mg of test protein was used throughout the assay, which is based on an evaluation of the average activity of pepsin recommended in the United States Pharmacopeia (24th edition, 2000) with some modifications. Pepsin (ref. #P7000) was purchased from Sigma-Aldrich (US). All proteins that were used were dissolved in 50 mM Tris-HCl (pH 9.5) at a concentration of 5 mg mL^−1. The reaction mixture contained 1.52 mL of SGF preheated to 37° C. before the addition of 0.08 mL of protein solution (Thomas et al., 2004). The mixture was placed into a thermomixer at 37° C. and was shaken at 400 rpm. For denaturating SDS-polyacrylamide gel electrophoresis (SDS-PAGE) analysis samples of 160 μl were removed at 0 minutes, 0.5 minutes, and 15 minutes after initiation.
SDS-PAGE was performed to analyze and visually inspect stained protein bands whether the protein band is still intact or fragmented after the digestion assay. […]
Each 160 μl of the digestion samples was quenched by adding 56 μl of 200 mM NaHCO3 as neutralization step and 56 μl 4× Laemmli (Laemmli 1970) buffer for electrophoresis. Samples were immediately heated up to 99° C. for 10 minutes and analyzed directly or stored at −20° C. […]

T2 sequence (P00791 60-385): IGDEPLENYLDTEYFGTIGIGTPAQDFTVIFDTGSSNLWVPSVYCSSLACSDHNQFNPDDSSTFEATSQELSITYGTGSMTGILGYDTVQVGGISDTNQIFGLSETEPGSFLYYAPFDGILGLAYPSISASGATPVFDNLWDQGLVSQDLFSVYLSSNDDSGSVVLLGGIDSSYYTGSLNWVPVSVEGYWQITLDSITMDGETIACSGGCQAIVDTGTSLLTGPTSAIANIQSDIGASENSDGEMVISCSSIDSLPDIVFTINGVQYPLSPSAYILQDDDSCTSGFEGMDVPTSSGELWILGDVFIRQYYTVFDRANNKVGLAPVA

On to `CC(=O)Oc1ccc2c3c1O[C@H]1[C@@H](OC(C)=O)C=C[C@H]4[C@@H](C2)N(C)CC[C@@]341` [diacetylmorphine], for which the DAM concentration result in data set [1] and in data set [2] was “declines” throughout. The “morphine concentration formed from DAM” value in data set [1] and in data set [2] was “increased” throughout. Moreover, the “diacetylmorphine hydrolyzed (total acetate yield, HPLC/RI)” value in data set [1] (pH 7) and in [2] (pH 7) was “more than 50%” throughout.

Regarding `CCC(=O)C(CC(C)N(C)C)(c1ccccc1)c1ccccc1` (stereo not drawn) [methadone], the “oxygen concentration after addition of the opioid” value in the data set on laccase mediator system [3] was “decline in oxygen concentration”.

In the case of `CN1CC[C@]23c4c5ccc(O)c4O[C@H]2[C@@H](O)C=C[C@H]3[C@H]1C5` [morphine], the “time at which new dot(s) appear on TLC (new product)” value in the data set on laccase came out at 120 s. Moreover, in [4], the “faster degradation of morphine with 10 times more laccase” value is given as around 10 times.

For the compound `COc1ccc2c3c1O[C@H]1C(=O)CC[C@@]4(O)[C@@H](C2)N(C)CC[C@]314` [oxycodone], the “oxygen concentration in solution upon laccase oxidation” value in data set [5] and in [6] was “not capable of converting oxycodone” each time. Further, the “oxygen concentration after addition of the opioid” value is “drop in oxygen concentration” in the data set with laccase mediator system [7] (mediator ethylvanillin 2 mM), “no apparent effect” in the data set on laccase mediator system [7] (mediator gallic acid 2 mM), “drop in oxygen concentration” with laccase mediator system [7] (mediator syringic acid 2 mM) and “drop in oxygen concentration” with laccase mediator system [7] (mediator vanillin 2 mM). Besides, the “oxycodone concentration (HPLC-MS/TOF)” value in the data set with laccase mediator system [8] (laccase mediator system, mediators at 2 mM, vanillin also 6 mM) is “decrease in oxycodone concentration was confirmed”. Also, in the data set with laccase mediator system [8] (mediator gallic acid), the “effect on oxycodone (MS-TOF analysis)” value is given as “no apparent effect”. Also, the “peak area of oxymorphone (degradation product) by MS-TOF” value in the data set on laccase mediator system [8] (oxycodone in combination with the laccase mediator system) was “increase in peak area of oxymorphone over time”.

As for `CC[C@@H](c1cccc(O)c1)[C@@H](C)CN(C)C` [tapentadol], the “oxygen concentration in solution upon laccase oxidation” value in data set [5] is given as “much slower”. Moreover, in [6], the “oxygen level to which the curve drops” value is recorded as around 0% and the “oxygen concentration in solution upon laccase oxidation” value was “converts tapentadol better”. Further, in the data set with laccase, the “time at which new dot(s) appear on TLC (new product)” value came to 120 s and the “time at which the reference dot disappears on TLC (all converted)” value was determined as 120 min.

For HRP: horse radish peroxidase, in the data set with pepsin, the “proteolytic degradation (SDS-PAGE)” value is “very susceptible to proteolytic degradation”.
